What was measured:
[1] = Hypotensive activity in the anaesthetized dog; format: in vivo; settings: intraduodenal (oral) administration, anaesthetized Beagle dogs; 184 nmoles/kg (compound of the invention), 5.52 nmoles/kg (Ref. B), doses equally active i.v.; 0-360 min
Method: Evaluation of the Hypotensive Activity in the Dog
Beagle dogs were anhaestetized with sodium pentobarbital (30 mg/kg i.v.) and a catheter was put in their carotid artery to measure the blood pressure. The catheter was connected with a pressure transductor. The compounds were administered by a catheter put in the duodenum. The effect on the average blood pressure is expressed as average effect with respect to the test time (Eavg =AUC0-360 /minutes) according to what described by Fettner S. H. et al., Eur. J. Clin. Pharmacol., 48:351-359, 1995. As reference compound the reference compound B above (Ref. B) was used. The controls were treated with the vehicle only.
The doses used for the oral administration were selected on the basis of the hypotensive activity data obtained after intravenous administration.

D1 = D1 activity on the rabbit splenic artery (RSA); settings: rings contracted with U46619; agonistic activity at the peak of the effect; cumulative administration
Method: Evaluation of the D1 Activity on the Rabbit Splenic Artery (RSA)
Artery rings were prepared according to Semeraro et al., Naunyn. Schnied. Arch. Pharmacol., 1990, 342, 539. These were contracted with U46619 (9,11-dideoxy-11α,9α -epoxy-methanprostaglandine F2α) at a submaximal concentration of […]. The tested compounds were cumulatively administered.
As reference compound (S)-N-propyl-N-{6-[2-(2-methoxyphenoxy)-ethylamino]-hexyl}-5,6-dihydroxy-1,2,3,4-tetrahydro-2-naphthylamine dihydrochloride (Ref. A), described in example 6 of the international patent application No. WO 93/19036 was employed. Furthermore a compound of the invention was compared with its corresponding compound having in 5-position a hydroxy group in the place of a hydroxymethyl group. i.e. Compound 22 of the international patent application No. WO 96/08228, (S)-N-propyl-N-{6-[2-(4-methylsulfonylphenyl)-ethylamino]hexyl}-5,6-dihydroxy-1,2,3,4-tetrahydro-2-naphthylamine dihydrobromide (Ref. B). The agonistic activity was evaluated at the peak of the effect and expressed as potency ratio (EC50 of Ref. A/EC50 of the tested compound), as shown in Table 1.

[2] = Absolute oral bioavailability in the dog; format: in vivo; settings: Beagle dogs (4), 1 mg/kg oral by gavage vs 0.2 mg/kg bolus, domperidone pretreatment
Method: Evaluation of the Absolute Oral Bioavailability
Four Beagle dogs were intramuscularly treated with 20 mg of domperidone (to avoid emesis) and, after 60 minutes, with a bolus of 0.2 mg/kg of a solution of the compound of example 13. The solution of this compound was prepared by dissolving 10 mg thereof in 100 μl of ethanol and 380 μl of 0.1N HCl, the resulting solution being brought to 10 ml with water. Appropriate volumes of this solution were administered to obtain the desired dose based on the dog weight.
Venous blood sample (3 ml) were collected before drug administration and the following times after dosing: 2.5, 5, 10, 15, 20, 30, 45, 60, 90, 120, 180, 240, 300 and 360 minutes.
After a washout period of 7 days, the same 4 Beagle dogs were intramuscularly treated with 20 mg of domperidone and, after 60 minutes, orally treated by gavage with the compound of Example 13 at the dose of 1 mg/kg. […]
The following pharmacokinetic parameters were determined by non-compartmental analysis from the individual plasma concentration of the compound of Example 13: […]
AUC(()-t), the area under the plasma concentration-time curve between time zero and the last concentration observed, estimated by the linear trapezoidal rule; Absolute bioavailability (F), the percentage of oral dose that is systemically available, calculated according to the following equation: [formula] […]

D2 = D2 activity in the rabbit ear artery (REA); set-up: species or system New Zealand rabbit; settings: electrically stimulated artery rings; agonistic activity at the peak of the effect; cumulative administration
Method: Evaluation of the D2 Activity in the Rabbit Ear Artery (REA)
Artery rings were prepared following the method described by Steinsland et al., Science, 1978, 443, 199, modified as follows.
Male New Zealand rabbits (weighing 2.5-3 Kg) were sacrificed by a pentobarbital intravenous injection and bled. The central ear artery was cut into 3 mm-rings. The samples were placed into a 25 ml-bath containing a Krebs solution (mM/l): sodium chloride 118, potassium chloride 4.7, calcium chloride 2.5, magnesium sulphate 1.2, sodium hydrogenocarbonate 25, potassium biphosphate 1.2, glucose 11.1, balanced with oxygen 95%/carbon dioxide 5% and maintained at 35±1° C. The Krebs solution was added with EDTA (10 μM) to present the cathecolamine oxidation, with desipramine (0.1 μM) and corticosterone (30 μM) to stop the neuronal and extraneuronal cathecolamine re-uptake.
The samples were electrically stimulated (10 Hz, 1 msec., 40-80 mA, 500 msec long) at intervals of 5 minutes.
The tested compounds were cumulatively administered.
As reference compounds the reference compounds A and B above were employed.
The agonistic activity was evaluated at the peak of the effect and expressed as potency ratio (EC50 of Ref. A/EC50 of the tested compound), as shown in Table 1.

SMILES	average effect on blood pressure (Eavg = AUC0-360/minutes) [1] [mmHg]	D1 activity (RSA), potency ratio (EC50 of Ref. A/EC50 of the tested compound) (D1)	Absolute oral bioavailability (F) ([2]; listed as Example 13, 1 mg/kg)	bioavailability ([2]; dog, plasma, po, 1 mg/kg, read-out: Absolute oral bioavailability (F)) [%]	D2 activity (REA), potency ratio (EC50 of Ref. A/EC50 of the tested compound) (D2)
CCCN(CCCCCCNCCc1ccc(S(C)(=O)=O)cc1)[C@H]1CCc2c(ccc(O)c2CO)C1 [Example 7, (S)-N-propyl-N-(6-(2-(4-methylsulfonylphenyl)ethylamino)hexyl)-5-hydroxymethyl-6-hydroxy-1,2,3,4-tetrahydro-2-naphthylamine]	-17.4±3.0	2.5	28-43%	38.8 ± 7.2	1.25
CCCN(CCCCCCNCCOc1ccccc1OC)[C@H]1CCc2c(ccc(O)c2O)C1.Cl.Cl [Ref. A, (S)-N-propyl-N-{6-[2-(2-methoxyphenoxy)-ethylamino]-hexyl}-5,6-dihydroxy-1,2,3,4-tetrahydro-2-naphthylamine dihydrochloride]		1			1
Br.Br.CCCN(CCCCCCNCCc1ccc(S(C)(=O)=O)cc1)[C@H]1CCc2c(ccc(O)c2O)C1 [Ref. B, (S)-N-propyl-N-{6-[2-(4-methylsulfonylphenyl)-ethylamino]hexyl}-5,6-dihydroxy-1,2,3,4-tetrahydro-2-naphthylamine dihydrobromide]	-3.5±3.9	50			3.3

Source: US6232348A, “Hydroxymethyl derivatives of 2-amino-1,2,3,4-tetrahydronaphthalene as cardiovascular agent” (Zambon Group S.p.A., priority 1997, dated 2001)
